According to patent US20200163984A1, “USE OF ISOVALERYL SPIRAMYCIN I, II AND/OR III IN MANUFACTURING MEDICAMENT FOR TREATING AND/OR PREVENTING TUMOR, AND MEDICAMENT” (SHENYANG FUYANG PHARMACEUTICAL TECHNOLOGY CO., LTD., priority 2017, published 2020):

How the values were obtained:
[1] = tested on: transplanted tumor of human esophageal cancer cell TE-1; experiment: TE-1 transplanted tumor in nude mice; settings: TE-1; 30 mg/kg i.g. 30 days
[2] = tested on: transplanted tumor of human pancreatic cancer cell PANC-1; experiment: PANC-1 transplanted tumor in nude mice
[3] = tested on: transplanted tumor of human large cell lung cancer H460 cells; experiment: H460 transplanted tumor in nude mice; settings: H460; 30 mg/kg i.g. 30 days
[4] = tested on: transplanted tumor of human renal clear cell adenocarcinoma cell 786-O; experiment: 786-O transplanted tumor in nude mice; settings: 786-O nude mice, 30 mg/kg
Summary of the method: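 Nude mice inoculated subcutaneously with 786-O cells in matrigel; at ≥100 mm^3 tumors, groups of 6 dosed intragastrically at 25, 50 or 100 mg/kg for 30 days. Tumor size measured every 3 days (V=a×b^2/2, RTV, T/C); tumors weighed at sacrifice for growth inhibition rate versus model group.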

**Q.** What does the source list for `O=P1(N(CCCl)CCCl)NCCCO1` (centres unmarked) [Cyclophosphamide, cyclophosphamide, reference compound]?
**A.** Body Weight (d 1) [1]: 23.18 ± 1.22 g; Body Weight (d 30) [1]: 20.57 ± 1.14 g; Inhibition Rate (tumor growth inhibition rate) [1]: 71.87%; Relative Tumor Proliferation Rate (T/C) [1]: 30.18%; Relative Tumor Volume (RTV) [1]: 4.00 ± 1.91; Tumor Volume (d 1) [1]: 269.96 ± 92.18 mm3; Tumor Volume (d 30) [1]: 886.22 ± 271.22 mm3; Tumor Weight [1]: 0.44 ± 0.18 g; Body Weight (d 1) ([2]; PANC-1, 30 mg/kg i.g. 30 days): 22.03 ± 0.70 g; Body Weight (d 30) ([2]; PANC-1, 30 mg/kg i.g. 30 days): 17.77 ± 0.65 g; Inhibition Rate (tumor growth inhibition rate) ([2]; PANC-1, 30 mg/kg i.g. 30 days): 70.18%; Tumor Weight ([2]; PANC-1, 30 mg/kg i.g. 30 days): 0.81 ± 0.25*8 g; Relative Tumor Proliferation Rate (T/C) ([2]; PANC-1 nude mice, 30 mg/kg): 29.56%; Relative Tumor Volume (RTV) ([2]; PANC-1 nude mice, 30 mg/kg): 5.17 ± 0.64; Tumor Volume (mm3) (d 1) ([2]; PANC-1 nude mice, 30 mg/kg, d1): 103.78 ± 12.65 mm3; Tumor Volume (mm3) (d30) ([2]; PANC-1 nude mice, 30 mg/kg, d30): 532.62 ± 56.27 mm3; Body Weight (d 1) [3]: 20.46 ± 0.54 g; Body Weight (d 30) [3]: 21.20 ± 0.75 g; Inhibition Rate (tumor growth inhibition rate) [3]: 71.08%; Relative Tumor Proliferation Rate (T/C) [3]: 30.86%; Relative Tumor Volume (RTV) [3]: 3.24 ± 0.99; Tumor Volume (d 1) [3]: 146.98 ± 27.55 mm3; Tumor Volume (d 30) [3]: 468.49 ± 128.57 mm3; Tumor Weight [3]: 0.50 ± 0.06 g; Inhibition Rate (%) [4]: 70.51%; Relative Tumor Proliferation Rate (T/C) [4]: 37.41%; Relative Tumor Volume (RTV) [4]: 6.76 ± 0.79; Tumor Weight [4]: 0.63 ± 0.04 g; Body Weight (g) (d1) ([4]; d1): 21.58 ± 0.81 g; Tumor Volume (mm3) (d 1) ([4]; d1): 108.64 ± 14.40 mm3; Body Weight (g) (d30) ([4]; d30): 19.42 ± 0.67 g; Tumor Volume (mm3) (d30) ([4]; d30): 734.23 ± 24.66 mm3
